Measurements as given in US20090175845A1, “METHODS FOR IDENTIFYING COMPOUNDS THAT MODULATE PHB DOMAIN PROTEIN ACTIVITY AND COMPOSITIONS THEREOF” (THE TRUSTEES OF COLUMBIA UNIVERSITY IN THE CITY OF NEW YORK, priority 2005, published 2009).

Columns and labels:
[1] = test system: mec-2 null worms expressing the mec-2(C140/174A) gene; test: C. elegans gentle touch sensitivity on plates with defined sterols; type: in vivo; conditions: sterol substituted for cholesterol in the growth medium, FIG. 8C
Protocol: C. elegans experiments. C. elegans strains were cultured at 20° C., assayed for touch sensitivity, and prepared for immunofluorescence as described previously [Zhang et al. (2004) Curr. Biol. 14:1888-96; Goodman et al. (2002) Nature 415:1039-42]. Briefly, C. elegans strains were cultured at 20° C. as described in the art. Strains were grown for at least three consecutive generations without starvation before carrying out the experiments described herein. Gentle touch and harsh touch sensitivity were assayed in blind tests by stimulating with an eyebrow hair or prodding with a platinum wire, respectively, as described in the art. To quantify the response, the number of responses in about 30 animals to 10 touches delivered alternately near the head and tail was recorded. Whole-mount immunofluorescence microscopy was carried out using methods known in the art.
Media for growth on limiting or no cholesterol or on other sterols were prepared from chloroform-extracted reagents as described by Matyash et al. [(2004) PLoS Biol. 2: e280].
First, a version of MEC-2 with reduced cholesterol binding was generating by mutating the predicted palmitoylation sites of the protein. Briefly, HEK293T cells were transfected with wild type MEC-2 or MEC-2(C140/174A) and labeled with [^3H]palmitic acid or [^3H]photoaffinity cholesterol. Equal expression of proteins in the lysates was confirmed on Western blots. […] Because touch sensitivity of wild-type animals was not affected by this limited cholesterol depletion, the effects observed with the palmitoylation mutant cannot be attributed to indirect effects on neuronal growth or development. Test compounds that target palmitoylation sites in PHB domain proteins can be used to modulate activity of such proteins, for example, by reducing their activity.

[2] = biological target: T1, NusA fused to the cholesterol binding domain of Podocin (amino acids 119-284) (Mus musculus, UniProt Q91X05); test: In vitro cholesterol interaction, scintillation counting of bead-bound recombinant protein
T1 construct: made in house; host or cells: E. coli
T1 sequence (Q91X05 119-284): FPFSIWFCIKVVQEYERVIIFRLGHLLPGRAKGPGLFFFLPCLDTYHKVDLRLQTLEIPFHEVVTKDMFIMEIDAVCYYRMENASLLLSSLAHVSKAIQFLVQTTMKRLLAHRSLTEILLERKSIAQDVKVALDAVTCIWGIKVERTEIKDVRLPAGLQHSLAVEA
Protocol: In vitro cholesterol interaction. Podocin truncations were cloned into various bacterial expression vectors and tested for the expression of soluble recombinant fusion proteins. […] Purity of the preparation was confirmed on Coomassie gels. For in vitro cholesterol interaction assays 2-20 μg of affinity purified Podocin protein was bound to 30 μl of Ni+ beads and incubated with 0.1 μCi [^3H]cholesterol (Amersham) complexed with low amounts of cyclodextrine. After binding for 10 minutes at 37° C. beads were washed extensively and counted in a scintillation counter. To confirm equal loading of the beads aliquots of the bound protein were run on Coomassie gels. Competition experiments were performed with 1 μg of affinity purified Podocin protein fused to NusA or NusA alone as a control. Samples were incubated with radioactively labeled cholesterol in the absence (no cold competition) or presence (cold competition) of varying amounts of […]. Cold competition was approximately 100-fold excess of cold cholesterol. The sample was washed extensively and subjected to scintillation counting.
The importance of different regions of Podocin for cholesterol binding was tested by fusing them to the extracellular and transmembrane domains of Nephrin. […]

Compound: CC(C)CCC[C@@H](C)[C@H]1CC[C@H]2[C@@H]3CC=C4C[C@@H](O)CC[C@]4(C)[C@H]3CC[C@]12C [cholesterol]
- rescue of reduced touch sensitivity [1]: dependent on the cholesterol concentration
- direct binding of [3H]cholesterol in vitro ([2]; Podocin fragments produced in E. coli, 10 minutes at 37° C.): sufficient for cholesterol binding
- cold competition of [3H]cholesterol binding ([2]; approximately 100-fold excess of unlabeled cholesterol): competed
